One assay concerns the target HER2YVMA (Homo sapiens, UniProt P04626, INS775YVMA). Description: Enzymatic assay HER2YVMA (method b). The class given is biochemical. Also on record: purchased Viva biotech, Shanghai, China custom purification. Conditions: [HER2YVMA]=5 nM, [ATP]=25 μM, [Peptide 22]=1 μM. The procedure:
(§1) A 2× stock solution of HER2 WT (ERBB2 0108-0000-1; ProQinase, Freiburg, Germany) corresponding to method a, was prepared as described below. Alternatively, a 2× stock solution of HER2YVMA (custom purification; Viva biotech, Shanghai, China) corresponding to method b, was prepared as described below. For method c, a 2× stock of EGFR (ERBB1 PR7295B, Thermo Fisher, Carlsbad, CA) was prepared as described below. All 2× solutions were prepared in buffer containing 50 mM HEPES, pH 7.5, 10 mM MnCl2, MgCl2, 0.005% Tween 20, 1 mM TCEP. 25 ul of 2× enzyme solution was added to a Seahorse low volume 384-well polypropylene assay plate (201288-100, Seahorse Bioscience, Chicopee, MA) containing 1 μl of compound serially diluted in 50% DMSO. To initiate the reaction, 25 μl of solution containing 2× final concentration of ATP and ProfilerPro Peptide 22 (760366, Perkin Elmer Hopkinton, MA) was added to each well. The reactions were separated on an LC3000 (Caliper Life Sciences) or a LabChip EZReader (Perkin Elmer) in kinetic mode.
(§2) At the conclusion of each assay, the data were exported from the instrument as a .rda file (LC3000) and processed in proprietary software, EZReviewer, which determines the percent of substrate converted to product within a given cycle as (P/P+S)*100 by measuring the amplitude of substrate and product peaks. Cycle time varied with amount of compounds tested between 8 and 12 cycles. Initial velocity (0-3600 s) from each reaction was determined from the slope of a plot of percent conversion at each cycle versus time (seconds). Percent inhibition was determined by dividing the slope of each reaction by the uninhibited control using 100*(1-(x/uninhibited control)). IC50 estimates were obtained by plotting the concentration of inhibitor versus percent inhibition in GraphPad Prism (GraphPad Software, San Diego, CA) using log[inhibitor] versus Response (Variable Slope Model); Y=Min+((Max-Min)/(1+((IC50/x)^Hillslope)))
(§3) • a) [HER2 WT]=12.5 nM, [ATP]=25 μM, [Peptide 22]=1 μM (ATP KMapp˜25 μM) • b) [HER2YVMA]=5 nM, [ATP]=25 μM, [Peptide 22]=1 μM (ATP KMapp˜15 μM) • c) [EGFR WT]=2 nM, [ATP]=1 mM, [Peptide 22]=1 μM (ATP KMapp˜25 μM)

The target in a further assay is T1, HER2 WT (Homo sapiens, UniProt P04626).
T1 construct: purchased ProQinase, Freiburg, Germany ERBB2 0108-0000-1
T1 sequence (P04626 23-1255): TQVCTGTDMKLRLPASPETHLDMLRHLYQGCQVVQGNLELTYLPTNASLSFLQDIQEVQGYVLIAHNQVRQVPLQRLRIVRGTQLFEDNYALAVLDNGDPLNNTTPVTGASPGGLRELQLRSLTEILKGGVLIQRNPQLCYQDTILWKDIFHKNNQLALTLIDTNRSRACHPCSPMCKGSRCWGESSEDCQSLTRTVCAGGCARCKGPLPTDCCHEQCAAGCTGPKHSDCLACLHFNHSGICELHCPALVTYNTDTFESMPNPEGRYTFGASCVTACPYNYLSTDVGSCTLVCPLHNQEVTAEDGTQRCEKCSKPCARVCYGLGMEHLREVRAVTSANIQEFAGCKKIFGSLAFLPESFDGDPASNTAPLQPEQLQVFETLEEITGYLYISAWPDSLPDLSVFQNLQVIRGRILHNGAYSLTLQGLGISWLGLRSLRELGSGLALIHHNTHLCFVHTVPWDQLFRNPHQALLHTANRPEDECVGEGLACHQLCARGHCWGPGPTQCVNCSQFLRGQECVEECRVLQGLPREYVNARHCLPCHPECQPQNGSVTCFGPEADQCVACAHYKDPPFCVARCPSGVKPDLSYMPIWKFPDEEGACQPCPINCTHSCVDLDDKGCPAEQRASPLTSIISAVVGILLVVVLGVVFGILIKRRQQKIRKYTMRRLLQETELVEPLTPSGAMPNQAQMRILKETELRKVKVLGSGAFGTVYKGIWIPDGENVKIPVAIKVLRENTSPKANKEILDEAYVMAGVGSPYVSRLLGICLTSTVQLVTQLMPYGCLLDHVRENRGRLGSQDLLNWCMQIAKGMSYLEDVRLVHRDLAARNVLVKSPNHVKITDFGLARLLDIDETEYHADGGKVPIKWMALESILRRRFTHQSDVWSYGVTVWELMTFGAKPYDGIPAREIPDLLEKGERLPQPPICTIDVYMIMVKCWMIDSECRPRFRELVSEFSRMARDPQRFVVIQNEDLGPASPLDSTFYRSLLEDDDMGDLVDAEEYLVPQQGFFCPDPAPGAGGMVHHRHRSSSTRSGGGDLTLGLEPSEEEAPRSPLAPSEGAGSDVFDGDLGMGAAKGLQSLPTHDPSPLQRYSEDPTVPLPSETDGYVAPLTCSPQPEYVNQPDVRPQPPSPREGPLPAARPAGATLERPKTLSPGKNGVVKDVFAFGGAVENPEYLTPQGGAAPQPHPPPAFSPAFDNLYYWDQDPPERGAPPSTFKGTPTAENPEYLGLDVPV
Description: Enzymatic assay HER2 WT (method a). The class given is biochemical. Conditions: [HER2 WT]=12.5 nM, [ATP]=25 μM, [Peptide 22]=1 μM. The procedure: as §1, §2, §3

The structures appear in SMILES notation. Where only a bound is given, the exact number is not on record here.

Sequence of HER2YVMA (P04626 with tags, fused parts or gaps INS775YVMA): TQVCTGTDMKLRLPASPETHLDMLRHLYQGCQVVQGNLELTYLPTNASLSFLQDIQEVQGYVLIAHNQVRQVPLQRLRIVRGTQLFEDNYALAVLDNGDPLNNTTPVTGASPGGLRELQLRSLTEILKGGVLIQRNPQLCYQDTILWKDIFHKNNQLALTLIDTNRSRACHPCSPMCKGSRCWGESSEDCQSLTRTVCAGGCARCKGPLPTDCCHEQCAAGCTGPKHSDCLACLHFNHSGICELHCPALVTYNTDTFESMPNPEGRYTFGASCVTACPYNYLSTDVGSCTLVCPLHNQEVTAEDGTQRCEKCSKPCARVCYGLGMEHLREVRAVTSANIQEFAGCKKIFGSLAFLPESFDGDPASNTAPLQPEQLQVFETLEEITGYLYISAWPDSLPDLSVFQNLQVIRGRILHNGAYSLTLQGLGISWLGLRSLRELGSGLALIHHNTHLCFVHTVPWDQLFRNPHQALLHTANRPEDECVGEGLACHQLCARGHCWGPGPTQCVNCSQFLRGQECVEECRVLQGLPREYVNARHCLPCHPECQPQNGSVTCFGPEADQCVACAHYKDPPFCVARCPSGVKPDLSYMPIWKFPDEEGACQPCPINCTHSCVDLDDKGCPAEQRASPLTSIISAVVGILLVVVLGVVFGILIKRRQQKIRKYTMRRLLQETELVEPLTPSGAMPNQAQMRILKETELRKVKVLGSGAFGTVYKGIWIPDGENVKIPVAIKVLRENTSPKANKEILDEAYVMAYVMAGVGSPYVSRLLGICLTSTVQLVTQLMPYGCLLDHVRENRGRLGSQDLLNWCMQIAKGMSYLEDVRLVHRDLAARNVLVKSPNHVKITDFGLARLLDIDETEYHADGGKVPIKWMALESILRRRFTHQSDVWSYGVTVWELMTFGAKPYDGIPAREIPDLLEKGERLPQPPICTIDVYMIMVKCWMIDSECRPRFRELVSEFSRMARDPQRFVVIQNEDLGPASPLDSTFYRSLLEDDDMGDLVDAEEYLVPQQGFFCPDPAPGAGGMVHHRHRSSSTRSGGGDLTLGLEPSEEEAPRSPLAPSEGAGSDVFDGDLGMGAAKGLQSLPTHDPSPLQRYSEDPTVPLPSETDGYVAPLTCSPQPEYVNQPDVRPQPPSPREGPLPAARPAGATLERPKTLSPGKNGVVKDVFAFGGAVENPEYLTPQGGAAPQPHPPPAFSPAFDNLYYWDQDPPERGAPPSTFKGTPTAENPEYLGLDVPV

On to `Cc1ccc(Oc2ccc(Nc3ncnc4sc5c(c34)CCN(C(=O)/C=C/CN3CC4(CCCC4)C3)C5)cc2C)cn1` [Compound 123], for which the 50% inhibitory concentration (IC50) against HER2YVMA and against HER2 WT was under 100 nM each time.

In the case of `Cc1ccc(Oc2ccc(Nc3ncnc4sc5c(c34)CC(C)N(C(=O)C=CCN(C)C)C5C)cc2C)cn1` (single isomer, unassigned) [Compound 162], the IC50 against HER2YVMA and against HER2 WT was 1000 to 10000 nM each time.

For the compound `Cc1ccc(Oc2ccc(Nc3ncnc4sc5c(c34)C(C)CN(C(=O)C=CCN(C)C(C)(C)C)C5)cc2C)cn1` (single isomer, unassigned) [Compound 179], the IC50 against HER2YVMA and against HER2 WT was under 100 nM in each case.

As to `Cc1ccc(Oc2ccc(Nc3ncnc4sc5c(c34)CCN(C(=O)/C=C/CN3CC[C@@H](CO)C3)C5)cc2C)cn1` [Compound 132], the IC50 at HER2YVMA and at HER2 WT was under 100 nM throughout.

Turning to `Cc1ccc(Oc2ccc(Nc3ncnc4sc5c(c34)CN(C(=O)C=CCN(C)C)C5C)cc2C)cn1` (single isomer, unassigned) [Compound 169], the IC50 against HER2YVMA and on HER2 WT was under 100 nM in each case.

With `Cc1ccc(Oc2ccc(Nc3ncnc4sc5c(c34)C(C)CN(C(=O)/C=C/CN(C)C(C)(C)C)C5)cc2C)cn1` (stereo not drawn) [Compound 175], the concentration for half-maximal inhibition (IC50) on HER2YVMA and at HER2 WT was under 100 nM throughout.

In the case of `Cc1ccc(Oc2ccc(Nc3ncnc4sc5c(c34)CN(C(=O)/C=C/CN(C)C)CC5)cc2C)cn1` [Compound 108, (E)-4-(Dimethylamino)-1-(4-((3-methyl-4-((6-methylpyridin-3-yl)oxy)phenyl)amino)-7,8-dihydropyrido[3′,4′:4,5]thieno[2,3-d]pyrimidin-6(5H)-yl)but-2-en-1-one], the 50% inhibitory concentration (IC50) against HER2YVMA and against HER2 WT was under 100 nM throughout.

Turning to `Cc1ccc(Oc2ccc(Nc3ncnc4sc5c(c34)CCN(C(=O)/C=C/CN3CC(F)(CO)C3)C5)cc2C)cn1` [Compound 151], the concentration for half-maximal inhibition (IC50) against HER2YVMA and against HER2 WT was under 100 nM throughout.

Take `Cc1ccc(Oc2ccc(Nc3ncnc4sc5c(c34)CCN(C(=O)/C=C/CN3CC[C@H](CO)C3)C5)cc2C)cn1` [Compound 133]: the concentration for half-maximal inhibition (IC50) at HER2YVMA and against HER2 WT was under 100 nM in each case.

Take `Cc1ccc(Oc2ccc(Nc3ncnc4sc5c(c34)C(C)N(C(=O)C=CCN(C)C)C5)cc2C)cn1` (single isomer, unassigned) [Compound 147]: the IC50 on HER2YVMA and on HER2 WT was under 100 nM each time.

Turning to `COc1ccc(Oc2ccc(Nc3ncnc4sc5c(c34)CCN(C(=O)/C=C/CN3CCOCC3)C5)cc2C)cn1` [Compound 164], the concentration for half-maximal inhibition (IC50) at HER2YVMA and against HER2 WT was 100 to 1000 nM in each case.

Consider `Cc1cc(Nc2ncnc3sc4c(c23)CCN(C(=O)/C=C/CN(C)C)CC4)ccc1Oc1ccn2ccnc2c1` [Compound 172, (E)-4-(Dimethylamino)-1-(4-((4-(imidazo[1,2-a]pyridin-7-yloxy)-3-methylphenyl)amino)-8,9-dihydro-5H-pyrimido[5′,4′:4,5]thieno[2,3-d]azepin-7(6H)-yl)but-2-en-1-one], for which the IC50 against HER2YVMA and on HER2 WT was under 100 nM in each case.

`Cc1ccc(Oc2ccc(Nc3ncnc4sc5c(c34)CCN(C(=O)/C=C/CN3CCC(O)C(C)(C)C3)C5)cc2C)cn1` (stereo not drawn) [Compound 114]: the IC50 on HER2YVMA and against HER2 WT was under 100 nM in each case.

`Cc1cc(Nc2ncnc3sc4c(c23)CN(C(=O)/C=C/CN(C)C)C4)ccc1Oc1ccc2ncnn2c1` [Compound 111, (E)-1-(4-((4-([1,2,4]Triazolo[1,5-a]pyridin-6-yloxy)-3-methylphenyl)amino)-5H-pyrrolo[3′,4′:4,5]thieno[2,3-d]pyrimidin-6(7H)-yl)-4-(dimethylamino)but-2-en-1-one]: the IC50 on HER2YVMA and at HER2 WT was under 100 nM throughout.

On to `Cc1cc(Nc2ncnc3sc4c(c23)CN(C(=O)/C=C/CN(C)C)C4)ccc1Oc1ccn2ncnc2c1` [Compound 130, (E)-1-(4-((4-([1,2,4]Triazolo[1,5-a]pyridin-7-yloxy)-3-methylphenyl)amino)-5H-pyrrolo[3′,4′:4,5]thieno[2,3-d]pyrimidin-6(7H)-yl)-4-(dimethylamino)but-2-en-1-one], for which the IC50 against HER2YVMA and at HER2 WT was under 100 nM each time.

As to `Cc1ccc(Oc2ccc(Nc3ncnc4sc5c(c34)CCN(C(=O)/C=C/CN3CCC[C@H](n4cccn4)C3)C5)cc2C)cn1` [Compound 112], the half-inhibitory concentration (IC50) against HER2YVMA and on HER2 WT was under 100 nM throughout.

Regarding `Cc1ccc(Oc2ccc(Nc3ncnc4sc5c(c34)CCN(C(=O)/C=C/CN3CCCCC3(C)CO)C5)cc2C)cn1` (stereo not drawn) [Compound 119], the 50% inhibitory concentration (IC50) at HER2YVMA and against HER2 WT was under 100 nM in each case.

As for `CCN(CC)C/C=C/C(=O)N1CCc2c(sc3ncnc(Nc4ccc(Oc5ccc(OC)nc5)c(C)c4)c23)C1` [Compound 137], the IC50 against HER2YVMA and at HER2 WT was under 100 nM throughout.

On to `Cc1ccc(Oc2ccc(Nc3ncnc4sc5c(c34)CCN(C(=O)/C=C/CN3CC(C)(C)OC(C)(C)C3)C5)cc2C)cn1` [Compound 121], for which the half-maximal inhibitory concentration (IC50) against HER2YVMA lay in the range of 100 to 1000 nM; against HER2 WT, 1000 to 10000 nM.

As to `Cc1ccc(Oc2ccc(Nc3ncnc4sc5c(c34)CCN(C(=O)/C=C/CN3CCC[C@@H](CO)C3)C5)cc2C)cn1` [Compound 154], the IC50 on HER2YVMA and at HER2 WT was under 100 nM in each case.

With `C=CC(=O)N1Cc2sc3ncnc(Nc4ccc(Oc5ccc(C)nc5)c(C)c4)c3c2C(C)C1` (stereo not drawn) [Compound 142, 1-(5-methyl-4-((3-methyl-4-((6-methylpyridin-3-yl)oxy)phenyl)amino)-5,6-dihydropyrido[4′,3′:4,5]thieno[2,3-d]pyrimidin-7(8H)-yl)prop-2-en-1-one], the 50% inhibitory concentration (IC50) at HER2YVMA and on HER2 WT was under 100 nM in each case.

With `Cc1cc(Nc2ncnc3sc4c(c23)CCN(C(=O)/C=C/CN(C)C)C4)ccc1Oc1ccc2nccn2c1` [Compound 109, (E)-4-(dimethylamino)-1-(4-((4-(imidazo[1,2-a]pyridin-6-yloxy)-3-methylphenyl)amino)-5,6-dihydropyrido[4′,3′:4,5]thieno[2,3-d]pyrimidin-7(8H)-yl)but-2-en-1-one], the 50% inhibitory concentration (IC50) against HER2YVMA is under 100 nM; against HER2 WT it was 100 to 1000 nM.

With `COc1ccc(Oc2ccc(Nc3ncnc4sc5c(c34)C(C)CN(C(=O)/C=C/CN(C)C)C5)cc2C)cn1` (stereo not drawn) [Compound 152, (E)-4-(dimethylamino)-1-(4-((4-((6-methoxypyridin-3-yl)oxy)-3-methylphenyl)amino)-5-methyl-5,8-dihydropyrido[4′,3′:4,5]thieno[2,3-d]pyrimidin-7(6H)-yl)but-2-en-1-one], the 50% inhibitory concentration (IC50) at HER2YVMA and against HER2 WT was under 100 nM in each case.

With `Cc1ccc(Oc2ccc(Nc3ncnc4sc5c(c34)CCN(C(=O)/C=C/CN3CC[C@H](F)C3)C5)cc2C)cn1` [Compound 124], the IC50 against HER2YVMA and against HER2 WT was under 100 nM in each case.

For the compound `O=C(/C=C/CN1CCOCC1)N1CCc2c(sc3ncnc(Nc4ccc(Oc5ccc6ncnn6c5)c(Cl)c4)c23)C1` [Compound 18], the concentration for half-maximal inhibition (IC50) against HER2YVMA and against HER2 WT was under 100 nM in each case.

Consider `COc1ccc(Oc2ccc(Nc3ncnc4sc5c(c34)CCN(C(=O)/C=C/CN3CC[C@H](CO)C3)C5)cc2C)cn1` [Compound 140], for which the half-maximal inhibitory concentration (IC50) against HER2YVMA and against HER2 WT was under 100 nM each time.

On to `Cc1cc(Nc2ncnc3sc4c(c23)CCN(C(=O)/C=C/CN(C)C)CC4)ccc1Oc1ccn2ncnc2c1` [Compound 168], for which the values for the IC50 against HER2YVMA and at HER2 WT were 100 to 1000 nM and under 100 nM, respectively.

As to `COc1ccc(Oc2ccc(Nc3ncnc4sc5c(c34)C(C)CN(C(=O)C=CCN(C)C)C5)cc2C)cn1` (single isomer, unassigned) [Compound 160], the 50% inhibitory concentration (IC50) at HER2YVMA and on HER2 WT was under 100 nM in each case.

For `C=CC(=O)N1CCc2c(sc3ncnc(Nc4ccc(Oc5cccnc5)c(C)c4)c23)C1` [Compound 11, 1-(4-((3-methyl-4-(pyridin-3-yloxy)phenyl)amino)-5,8-dihydropyrido[4′,3′:4,5]thieno[2,3-d]pyrimidin-7(6H)-yl)prop-2-en-1-one], the IC50 against HER2YVMA and against HER2 WT was under 100 nM throughout.

As to `C=CC(=O)N1Cc2sc3ncnc(Nc4ccc(Oc5ccc(C)nc5)c(C)c4)c3c2C(C)C1` (single isomer, unassigned) [Compound 146], the half-maximal inhibitory concentration (IC50) against HER2YVMA and against HER2 WT was under 100 nM throughout.

The values are drawn from US20240391931A1 (Bristol-Myers Squibb Company, priority 2021, published 2024).
